Experimental data from the supplement of paper PMC10307832.

Key:
Assay in all cases: relative viability (nuclei count vs DMSO), 5 days (fraction); higher = more cells survive
Axitinib + Vorinostat = compound: CNC(=O)c1ccccc1Sc1ccc2c(/C=C/c3ccccn3)n[nH]c2c1 [Axitinib] + O=C(CCCCCCC(=O)Nc1ccccc1)NO [Vorinostat] (partner 1 µM)
Procedure, shortened: (§1)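 Lung cancer cell lines were pin-tool dosed in 1536-well plates on the day after seeding, with either a lone drug or a fixed anchor-drug dose plus five library-drug doses (not always all listed) in √10 steps. Nuclei were counted on 4× images after 5 days. Relative viability is the ratio of treated-well to vehicle-well nuclei counts, with each value a median of duplicate plates.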

[1] = compound: CC1=CC=C(C=C1)C(=O)CN2C3=C(CCCC3)SC2=N [Pifithrin_alpha] + NC(=O)Nc1cc(-c2cccc(F)c2)sc1C(=O)N[C@H]1CCCNC1 [AZD7762] (partner 0.2 µM)
Procedure, shortened: as §1

[2] = compound: CC1=CC=C(C=C1)C(=O)CN2C3=C(CCCC3)SC2=N [Pifithrin_alpha] + O=C(c1cc(Cc2n[nH]c(=O)c3ccccc23)ccc1F)N1CCN(C(=O)C2CC2)CC1 [Olaparib] (partner 8 µM)
Procedure, shortened: as §1

[3] = compound: CC1=CC=C(C=C1)C(=O)CN2C3=C(CCCC3)SC2=N [Pifithrin_alpha] + O=C(CCCCCCC(=O)Nc1ccccc1)NO [Vorinostat] (partner 1 µM)
Procedure, shortened: as §1

Cell Line	relative viability (Axitinib + Vorinostat; first compound 0.005 µM)	relative viability (Axitinib + Vorinostat; first compound 0.05 µM)	relative viability (Axitinib + Vorinostat; first compound 0.1581 µM)	relative viability (Axitinib + Vorinostat; first compound 0.5 µM)	relative viability ([1]; first compound 3.162 µM)	relative viability ([1]; first compound 31.62 µM)	relative viability ([1]; first compound 100 µM)	relative viability ([2]; first compound 3.162 µM)	relative viability ([2]; first compound 31.62 µM)	relative viability ([2]; first compound 100 µM)	relative viability ([3]; first compound 3.162 µM)	relative viability ([3]; first compound 31.62 µM)	relative viability ([3]; first compound 100 µM)	relative viability (Axitinib + Vorinostat; first compound 0.01581 µM)	relative viability ([1]; first compound 1 µM)	relative viability ([1]; first compound 10 µM)	relative viability ([2]; first compound 1 µM)	relative viability ([2]; first compound 10 µM)	relative viability ([3]; first compound 1 µM)	relative viability ([3]; first compound 10 µM)
PC-3 [JPC-3]	0.787	0.94	0.758	0.857	0.678	0.464	0.446	1.11	0.564	0.764	0.61	0.609	0.639							
HCC-366	0.666	0.447	0.333	0.395	0.183		0.174	0.238		0.209	0.204		0.209	0.414	0.23	0.183	0.344	0.299	0.252	0.171
NCI-H2405	1.01	1.18	0.953	1.13	0.654	0.579	0.615	0.775	0.51	0.644	0.931	0.734	0.785	1.03		0.651		0.725		0.743
LU99A	0.514	0.56	0.465	0.409	0.459		0.352	0.242		0.236	0.646		0.463	0.472	0.359	0.341	0.248	0.277	0.491	0.373
LCLC-97TM1	0.889	0.756	0.804	0.766	0.231		0.239	0.39		0.289	0.857		0.726	0.734	0.222	0.382		0.33		0.852
A-427	0.909	0.864	0.903	0.956	0.675	0.644	0.672	0.623	0.339	0.493	0.83	0.762	0.728	0.929	0.692	0.666	0.676	0.574	0.827	0.807
EMC-BAC-2	0.469	0.528	0.445	0.438	1.09	0.82	1.04	0.412	0.252	0.351	0.413	0.328	0.413	0.371	1.09	0.954	0.419			
NCI-H2228	0.818	0.605	0.506	0.885				0.634	0.647	0.549	0.663	0.387	0.374	0.618			0.681	0.605	0.831	0.721
IA-LM	1.02	0.974	0.934	0.973				0.699	0.192	0.271	1.16	0.913	0.907	1.02			0.758	0.332		
NCI-H838	0.814	0.792	0.707	0.752	0.909	0.744	0.884	0.505	0.363	0.534	0.591	0.567	0.525	0.725	0.875	0.832	0.723	0.469	0.593	0.555
COR-L 105	0.958	0.874	0.825	0.818				0.426	0.425	0.447	0.665	0.608	0.633	0.794			0.489	0.477	0.844	0.699
NCI-H358	0.698	0.689	0.573	0.726	0.489	0.427	0.413	0.559	0.252	0.555	0.708	0.344	0.545	0.675	0.582	0.496	0.628	0.459	0.733	0.867
SK-MES-1	1.1	1.25	1.02	1.27				0.493	0.241	0.373	0.95	0.591	0.852	1.12			0.479	0.292	1.01	0.959
LCLC-103H	0.767	0.808	0.75	0.759	0.846	0.721	0.85	0.817	0.52	0.686	0.884	0.733	0.761	0.801	0.792	0.791	0.772	0.644	0.565	0.782
HARA	0.533	0.526		0.655	0.329	0.23	0.209	0.931	0.305	0.808	0.558	0.468	0.513	0.559	0.3	0.219	0.659	1		0.674
ABC-1	1.15	1.13	1.47	1.34	0.977	0.726	0.679	0.774	0.405	0.477	1.25	0.622	0.765			0.8		0.557		0.844
NCI-H727	1.16	1.16	1.35	1.21	0.57	0.51	0.48	0.843	0.583	0.597	1.18	0.777	1.35	1.33	0.478	0.571	0.71	0.68	0.461	1.14
NCI-H2009	0.732	0.736	0.716	0.821				0.903	0.286	0.614	0.715	0.399	0.57	0.783			0.701	0.594	0.697	0.601
NCI-H1944	0.616	0.585	0.498	0.518	0.574	0.529	0.468	0.337	0.25	0.28	0.572	0.351	0.395	0.54	0.514	0.563	0.378	0.344	0.503	0.505
